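Compound exposure: 48 hours, 5 concentrations, 96-well plates. GI50 marks 50% less growth.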 Activity calls are given as the source filed them. Rule as the data show it: active = GI50 up to about 1.1 µM and inactive = higher.
Columns and labels:
Experiment in all cases: growth of human tumour cells (NCI), 48 h
[1] = tested on: CAKI-1
[2] = tested on: M19-MEL
[3] = tested on: SNB-19
[4] = tested on: RXF 393
[5] = tested on: NCI-H522
[6] = tested on: EKVX
[7] = tested on: A498
[8] = tested on: HCC 2998
[9] = tested on: MOLT-4
[10] = tested on: KM12
[11] = tested on: SNB-75
[12] = tested on: RXF 631
[13] = tested on: TK-10
[14] = tested on: CCRF-CEM
[15] = tested on: DMS-114
[16] = tested on: COLO 205
[17] = tested on: LOX IMVI
[18] = tested on: SR
[19] = tested on: SW-620
[20] = tested on: SF-539
[21] = tested on: SNB-78
[22] = tested on: NCI-H460
[23] = tested on: OVCAR-5
[24] = tested on: K562
[25] = tested on: NCI-H23
[26] = tested on: M14
[27] = tested on: KM-20L2
[28] = tested on: A549
[29] = tested on: LXFL 529
[30] = tested on: HCT-15
[31] = tested on: OVCAR-3
[32] = tested on: SN12C
[33] = tested on: SK-MEL-28
[34] = tested on: IGROV-1
[35] = tested on: NCI-H226
[36] = tested on: SK-OV-3
[37] = tested on: SK-MEL-2
[38] = tested on: HCT-116
[39] = tested on: HL-60
[40] = tested on: DMS-273
[41] = tested on: Malme-3M
[42] = tested on: SF-295
[43] = tested on: SK-MEL-5
[44] = tested on: HOP-62
[45] = tested on: RPMI-8226
[46] = tested on: 786-0
[47] = tested on: OVCAR-4
[48] = tested on: HT-29
[49] = tested on: UO-31
[50] = tested on: SF-268
[51] = tested on: ACHN
[52] = tested on: HOP-92
[53] = tested on: DLD-1
[54] = tested on: U-251
[55] = tested on: XF498
[56] = tested on: UACC-257
[57] = tested on: UACC-62
[58] = tested on: OVCAR-8

Question: For `CC(C)(CCl)NC(=O)c1cccc(C(=O)NC(C)(C)CCl)n1`, which GI50 [1] is on record?
Answer: Its GI50 is > 100 µM (inactive).

Question: And the GI50 [2]?
Answer: The GI50 was > 100 µM (inactive).

Question: And the GI50 [3]?
Answer: The GI50 was > 100 µM (inactive).

Question: What about the GI50 [4] of the same compound?
Answer: The GI50 was > 100 µM (inactive).

Question: And the GI50 [5]?
Answer: The GI50 was > 100 µM (inactive).

Question: And the GI50 [6]?
Answer: The GI50 was > 100 µM (inactive).

Question: And the GI50 [7]?
Answer: Its GI50 is > 100 µM (inactive).

Question: And the GI50 [8]?
Answer: The GI50 was > 100 µM (inactive).

Question: And the GI50 [9]?
Answer: The GI50 was > 100 µM (inactive).

Question: What about the GI50 [10] of the same compound?
Answer: Its GI50 is > 100 µM (inactive).

Question: What about the GI50 [11] of the same compound?
Answer: The GI50 was 92.3 µM (inactive).

Question: And the GI50 [12]?
Answer: Its GI50 is > 100 µM (inactive).

Question: And the GI50 [13]?
Answer: The GI50 was > 100 µM (inactive).

Question: And the GI50 [14]?
Answer: The GI50 was > 100 µM (inactive).

Question: What about the GI50 [15] of the same compound?
Answer: Its GI50 is > 100 µM (inactive).

Question: And the GI50 [16]?
Answer: Its GI50 is > 100 µM (inactive).

Question: And the GI50 [17]?
Answer: The GI50 was > 100 µM (inactive).

Question: What about the GI50 [18] of the same compound?
Answer: Its GI50 is > 100 µM (inactive).

Question: What about the GI50 [19] of the same compound?
Answer: Its GI50 is > 100 µM (inactive).

Question: What about the GI50 [20] of the same compound?
Answer: The GI50 was > 100 µM (inactive).

Question: What about the GI50 [21] of the same compound?
Answer: Its GI50 is > 100 µM (inactive).

Question: What about the GI50 [22] of the same compound?
Answer: The GI50 was > 100 µM (inactive).

Question: And the GI50 [23]?
Answer: The GI50 was > 100 µM (inactive).

Question: What about the GI50 [24] of the same compound?
Answer: Its GI50 is > 100 µM (inactive).

Question: What about the GI50 [25] of the same compound?
Answer: The GI50 was > 100 µM (inactive).

Question: And the GI50 [26]?
Answer: The GI50 was > 100 µM (inactive).

Question: What about the GI50 [27] of the same compound?
Answer: Its GI50 is > 100 µM (inactive).

Question: And the GI50 [28]?
Answer: Its GI50 is > 100 µM (inactive).

Question: What about the GI50 [29] of the same compound?
Answer: The GI50 was > 100 µM (inactive).

Question: And the GI50 [30]?
Answer: The GI50 was > 100 µM.

Question: And the GI50 [31]?
Answer: Its GI50 is > 100 µM (inactive).

Question: And the GI50 [32]?
Answer: Its GI50 is > 100 µM (inactive).

Question: What about the GI50 [33] of the same compound?
Answer: Its GI50 is > 100 µM (inactive).

Question: And the GI50 [34]?
Answer: Its GI50 is > 100 µM (inactive).

Question: What about the GI50 [35] of the same compound?
Answer: Its GI50 is > 100 µM (inactive).

Question: What about the GI50 [36] of the same compound?
Answer: Its GI50 is > 100 µM (inactive).

Question: And the GI50 [37]?
Answer: The GI50 was > 100 µM (inactive).

Question: What about the GI50 [38] of the same compound?
Answer: The GI50 was > 100 µM (inactive).

Question: What about the GI50 [39] of the same compound?
Answer: The GI50 was > 100 µM (inactive).

Question: What about the GI50 [40] of the same compound?
Answer: Its GI50 is > 100 µM (inactive).

Question: And the GI50 [41]?
Answer: The GI50 was > 100 µM (inactive).

Question: And the GI50 [42]?
Answer: Its GI50 is > 100 µM (inactive).

Question: And the GI50 [43]?
Answer: The GI50 was > 100 µM (inactive).

Question: And the GI50 [44]?
Answer: The GI50 was > 100 µM (inactive).

Question: What about the GI50 [45] of the same compound?
Answer: Its GI50 is > 100 µM (inactive).

Question: What about the GI50 [46] of the same compound?
Answer: Its GI50 is > 100 µM (inactive).

Question: What about the GI50 [47] of the same compound?
Answer: Its GI50 is > 100 µM (inactive).

Question: And the GI50 [48]?
Answer: Its GI50 is > 100 µM (inactive).

Question: What about the GI50 [49] of the same compound?
Answer: Its GI50 is > 100 µM (inactive).

Question: And the GI50 [50]?
Answer: The GI50 was > 100 µM (inactive).

Question: And the GI50 [51]?
Answer: Its GI50 is > 100 µM (inactive).

Question: And the GI50 [52]?
Answer: The GI50 was > 100 µM (inactive).

Question: What about the GI50 [53] of the same compound?
Answer: Its GI50 is > 100 µM (inactive).

Question: And the GI50 [54]?
Answer: Its GI50 is > 100 µM (inactive).

Question: Which results are given for `Cc1ccc(SC(CCC(Sc2ccc(C)cc2)Sc2ccc(C)cc2)Sc2ccc(C)cc2)cc1`?
Answer: GI50 [1]: > 100 µM (inactive); GI50 [2]: > 100 µM (inactive); GI50 [3]: > 100 µM (inactive); GI50 [4]: > 100 µM (inactive); GI50 [5]: > 100 µM (inactive); GI50 [6]: > 100 µM (inactive); GI50 [7]: > 100 µM (inactive); GI50 [9]: > 100 µM (inactive); GI50 [10]: > 100 µM (inactive); GI50 [11]: > 100 µM (inactive); GI50 [12]: > 100 µM (inactive); GI50 [13]: > 100 µM (inactive); GI50 [14]: > 100 µM (inactive); GI50 [15]: > 100 µM (inactive); GI50 [16]: > 100 µM (inactive); GI50 [17]: > 100 µM (inactive); GI50 [55]: > 100 µM (inactive); GI50 [18]: > 100 µM (inactive); GI50 [19]: > 100 µM (inactive); GI50 [20]: > 100 µM (inactive); GI50 [21]: > 100 µM (inactive); GI50 [22]: > 100 µM (inactive); GI50 [24]: > 100 µM (inactive); GI50 [25]: > 100 µM (inactive); GI50 [26]: > 100 µM (inactive); GI50 [56]: > 100 µM (inactive); GI50 [27]: > 100 µM (inactive); GI50 [28]: > 100 µM (inactive); GI50 [30]: > 100 µM; GI50 [31]: > 100 µM (inactive); GI50 [32]: > 100 µM (inactive); GI50 [33]: > 100 µM (inactive); GI50 [34]: > 100 µM (inactive); GI50 [36]: > 100 µM (inactive); GI50 [37]: > 100 µM (inactive); GI50 [57]: > 100 µM (inactive); GI50 [38]: > 100 µM (inactive); GI50 [39]: > 100 µM (inactive); GI50 [40]: > 100 µM (inactive); GI50 [42]: > 100 µM (inactive); GI50 [43]: > 100 µM (inactive); GI50 [44]: > 100 µM (inactive); GI50 [45]: > 100 µM (inactive); GI50 [46]: > 100 µM (inactive); GI50 [47]: > 100 µM (inactive); GI50 [49]: > 100 µM (inactive); GI50 [50]: > 100 µM (inactive); GI50 [58]: > 100 µM (inactive); GI50 [51]: > 100 µM (inactive); GI50 [52]: 71.1 µM (inactive); GI50 [53]: > 100 µM (inactive); GI50 [54]: > 100 µM (inactive)

Reference: ChEMBL document CHEMBL1201862, “PubChem BioAssay data set” (2004)
